Data published in patent US12060347B2 (BRISTOL-MYERS SQUIBB COMPANY, priority 2016, dated 2024).

Molecular target: T1, human PAR4 (Homo sapiens, UniProt Q96RI0)
T1 construct: expressed in transfected cells; host or cells: HEK293 PAR4 Clone 1.2A (BMS Arctic ID 383940)
T1 sequence (Q96RI0 18-385): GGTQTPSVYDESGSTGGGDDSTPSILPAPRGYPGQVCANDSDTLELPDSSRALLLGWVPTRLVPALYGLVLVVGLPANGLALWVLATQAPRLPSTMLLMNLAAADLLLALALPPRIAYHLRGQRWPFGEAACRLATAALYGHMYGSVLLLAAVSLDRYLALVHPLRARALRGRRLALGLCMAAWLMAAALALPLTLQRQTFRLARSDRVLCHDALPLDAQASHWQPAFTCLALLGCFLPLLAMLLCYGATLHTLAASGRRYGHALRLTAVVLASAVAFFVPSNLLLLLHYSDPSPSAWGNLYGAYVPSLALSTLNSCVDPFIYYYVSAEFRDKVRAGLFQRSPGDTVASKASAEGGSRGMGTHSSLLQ
Assay: PAR4 FLIPR assay: antagonism of agonist-peptide-induced calcium mobilization in PAR4-expressing HEK293 cells
Type: cell-based
Conditions: H-Ala-Phe(4-F)-[…]NH2-induced intracellular calcium mobilization, 11-point curves

IC50 | Compound
0.6 nM | COCc1cnc2c(-c3nc4c(C)cc(OC)cc4s3)cc(C)cc2n1 [Example 183, 6-methoxy-2-(2-(methoxymethyl)-7-methylquinoxalin-5-yl)-4-methylbenzo[d]thiazole]
2300 nM | COC(C)c1cnc2c(-c3cc4ccccc4o3)cc(C)cc2n1 (centres unmarked) [Example 184, 5-(benzofuran-2-yl)-2-(1-methoxyethyl)-7-methylquinoxaline]
6.5 nM | COCc1cnc2c(-c3nc4c(C)cc(OC)cc4s3)cc(C)cc2c1 [Example 185, 6-methoxy-2-(3-(methoxymethyl)-6-methylquinolin-8-yl)-4-methylbenzo[d]thiazole]
17 nM | COc1cc(C)c2nc(-c3cc(C)cc4nc(C(F)(F)OC)cnc34)sc2c1 [Example 186, 2-(2-(difluoro(methoxy)methyl)-7-methylquinoxalin-5-yl)-6-methoxy-4-methylbenzo[d]thiazole]
390 nM | COc1cc(C)c2nc(-c3cc(C)cc4nc(COc5ccccc5)cnc34)sc2c1 [Example 187, 6-methoxy-4-methyl-2-(7-methyl-2-(phenoxymethyl)quinoxalin-5-yl)benzo[d]thiazole]
580 nM | COc1cc(C)c2nc(-c3cc(C)cc4nc(CN(C)C)cnc34)sc2c1 [Example 188, 1-(5-(6-methoxy-4-methylbenzo[d]thiazol-2-yl)-7-methylquinoxalin-2-yl)-N,N-dimethylmethanamine]
140 nM | CCOCc1cnc2c(-c3nc4c(C)cc(OC)cc4s3)cc(C)cc2n1 [Example 189, 2-(2-(ethoxymethyl)-7-methylquinoxalin-5-yl)-6-methoxy-4-methylbenzo[d]thiazole]
1700 nM | COCc1cnc2c(-c3nc4c(C)cc(OC)cc4s3)cc(C)cc2c1OC [Example 190, 6-methoxy-2-(4-methoxy-3-(methoxymethyl)-6-methylquinolin-8-yl)-4-methylbenzo[d]thiazole]
6.4 nM | COCc1cnc2c(-c3nc4c(C)cc(Cl)nc4s3)cc(C)cc2n1 [Example 191, 5-chloro-2-(2-(methoxymethyl)-7-methylquinoxalin-5-yl)-7-methylthiazolo[5,4-b] pyridine]
2.8 nM | COCc1cnc2c(-c3nc4c(CO)cc(OC)nc4s3)cc(C)cc2n1 [Example 192, (5-methoxy-2-(2-(methoxymethyl)-7-methylquinoxalin-5-yl)thiazolo[5,4-b]pyridin-7-yl) methanol]
1.2 nM | COCc1cnc2c(-c3nc4c(C)cc(OCCNS(=O)(=O)c5ccc(F)cc5)nc4s3)cc(C)cc2n1 [Example 193, 4-fluoro-N-(2-((2-(2-(methoxymethyl)-7-methylquinoxalin-5-yl)-7-methylthiazolo[5,4-b]pyridin-5-yl)oxy)ethyl)benzenesulfonamide]

Second part, the compound before the results:

Compound | IC50
COC(=O)c1cc(OC)cc2sc(-c3cc(C)cc4nc(OC)cnc34)nc12 [Example 152, methyl 6-methoxy-2-(2-methoxy-7-methylquinoxalin-5-yl)benzo[d]thiazole-4-carboxylate] | 38 nM
COCc1cnc2c(-c3nc4c(C)cc(OC)cc4s3)nc(C)cc2c1 [Example 153, 6-methoxy-2-(3-(methoxymethyl)-6-methyl-1,7-naphthyridin-8-yl)-4-methylbenzo[d]thiazole] | 16 nM
COc1cc(CO)c2nc(-c3cc(C)cc4nc(OC)cnc34)sc2c1 [Example 154, (6-methoxy-2-(2-methoxy-7-methylquinoxalin-5-yl)benzo[d]thiazol-4-yl)methanol] | 3.8 nM
COCc1cnc2c(-c3nc4c(CO)cc(OC)cc4s3)cc(C)cc2n1 [Example 155, (6-methoxy-2-(2-(methoxymethyl)-7-methylquinoxalin-5-yl)benzo[d]thiazol-4-yl) methanol] | 0.8 nM
COCc1cnc2c(-c3nc4c(C(C)O)cc(OC)cc4s3)cc(C)cc2n1 (centres unmarked) [Example 156, 1-(6-methoxy-2-(2-(methoxymethyl)-7-methylquinoxalin-5-yl)benzo[d]thiazol-4-yl) ethanol] | 1.4 nM
COCc1cnc2c(-c3nc4c(C(C)(C)O)cc(OC)cc4s3)cc(C)cc2n1 [Example 157, 2-(6-methoxy-2-(2-(methoxymethyl)-7-methylquinoxalin-5-yl)benzo[d]thiazol-4-yl) propan-2-ol] | 31 nM
COCc1cnc2c(-c3nc4c(C(O)C5CC5)cc(OC)cc4s3)cc(C)cc2n1 (centres unmarked) [Example 158, Cyclopropyl(6-methoxy-2-(2-(methoxymethyl)-7-methylquinoxalin-5-yl)benzo[d]thiazol-4-yl)methanol] | 0.7 nM
COCc1cnc2c(-c3nc4c(CN(C)C)cc(OC)cc4s3)cc(C)cc2n1 [Example 159, 1-(6-methoxy-2-(2-(methoxymethyl)-7-methylquinoxalin-5-yl)benzo[d]thiazol-4-yl)-N,N-dimethylmethanamine] | 25 nM
COc1cc(C(O)C2CC2)c2nc(-c3cc(C)cc4nc(OC)cnc34)sc2c1 (centres unmarked) [Example 160, Cyclopropyl(6-methoxy-2-(2-methoxy-7-methylquinoxalin-5-yl)benzo[d]thiazol-4-yl) methanol] | 1.2 nM
COCc1cnc2c(-c3nc4c(C(O)c5ccccc5)cc(OC)cc4s3)cc(C)cc2n1 (centres unmarked) [Example 161, (6-methoxy-2-(2-(methoxymethyl)-7-methylquinoxalin-5-yl)benzo[d]thiazol-4-yl) (phenyl)methanol] | 0.7 nM
COCc1cnc2c(-c3nc4c(C(=O)O)cc(OC)cc4s3)cc(C)cc2n1 [Example 162, 6-methoxy-2-(2-(methoxymethyl)-7-methylquinoxalin-5-yl)benzo[d]thiazole-4-carboxylic acid] | 270 nM
COCc1cnc2c(-c3nc4c(C(O)C5CCCCC5)cc(OC)cc4s3)cc(C)cc2n1 (centres unmarked) [Example 165, Cyclohexyl(6-methoxy-2-(2-(methoxymethyl)-7-methylquinoxalin-5-yl)benzo[d]thiazol-4-yl)methanol] | 1.2 nM
COCc1cnc2c(-c3nc4c(C(O)C5CCC5)cc(OC)cc4s3)cc(C)cc2n1 (centres unmarked) [Example 166, Cyclobutyl(6-methoxy-2-(2-(methoxymethyl)-7-methylquinoxalin-5-yl)benzo[d]thiazol-4-yl)methanol] | 2.8 nM
COCc1cnc2c(-c3nc4c(C(O)c5ccccn5)cc(OC)cc4s3)cc(C)cc2n1 (centres unmarked) [Example 167, (6-methoxy-2-(2-(methoxymethyl)-7-methylquinoxalin-5-yl)benzo[d]thiazol-4-yl)(pyridin-2-yl)methanol] | 4.5 nM
COCc1cnc2c(-c3nc4c(C(O)c5cccnc5)cc(OC)cc4s3)cc(C)cc2n1 (centres unmarked) [Example 168, (6-methoxy-2-(2-(methoxymethyl)-7-methylquinoxalin-5-yl)benzo[d]thiazol-4-yl) (pyridin-3-yl)methanol] | 2 nM
COCc1cnc2c(-c3nc4c(C(O)C(F)(F)F)cc(OC)cc4s3)cc(C)cc2n1 (centres unmarked) [Example 171, 2,2,2-trifluoro-1-(6-methoxy-2-(2-(methoxymethyl)-7-methylquinoxalin-5-yl)benzo[d]thiazol-4-yl)ethanol] | 0.6 nM
COCc1cnc2c(-c3nc4c(C(O)c5ccncc5)cc(OC)cc4s3)cc(C)cc2n1 (centres unmarked) [Example 172, (6-methoxy-2-(2-(methoxymethyl)-7-methylquinoxalin-5-yl)benzo[d]thiazol-4-yl)(pyridin-4-yl)methanol] | 1.7 nM
COCc1cnc2c(-c3nc4c(C(O)CC(F)(F)F)cc(OC)cc4s3)cc(C)cc2n1 (centres unmarked) [Example 173, 3,3,3-trifluoro-1-(6-methoxy-2-(2-(methoxymethyl)-7-methylquinoxalin-5-yl)benzo[d]thiazol-4-yl)propan-1-ol] | 2.7 nM
COc1cc(C(O)C(F)(F)F)c2nc(-c3cc(C)cc4nc(OC)cnc34)sc2c1 (centres unmarked) [Example 174, 2,2,2-trifluoro-1-(6-methoxy-2-(2-methoxy-7-methylquinoxalin-5-yl)benzo[d]thiazol-4-yl)ethanol] | 3 nM
COc1cnc2c(-c3cc4ccccc4o3)cc(C)cc2n1 [Example 175, 5-(benzofuran-2-yl)-2-methoxy-7-methylquinoxaline] | 23 nM
COC(=O)c1cnc2c(-c3cc4ccccc4o3)cc(C)cc2n1 [Example 176, methyl 5-(benzofuran-2-yl)-7-methylquinoxaline-2-carboxylate] | 980 nM
COc1cnc2c(-c3cc4ccccc4o3)cc(C)cc2c1 [Example 177, 8-(benzofuran-2-yl)-3-methoxy-6-methylquinoline] | 190 nM
Cc1cc(-c2nc3c(s2)CCCC3)c2ncc(OC(F)F)nc2c1 [Example 178, 2-(2-(difluoromethoxy)-7-methylquinoxalin-5-yl)-4,5,6,7-tetrahydrobenzo[d]thiazole] | 13 nM
COc1cnc2c(-c3nc4c(C)cc(OC)nc4s3)cc(C)cc2n1 [Example 179, 5-methoxy-2-(2-methoxy-7-methylquinoxalin-5-yl)-7-methylthiazolo[5,4-b]pyridine] | 18 nM
COCc1cnc2c(-c3nc4cc(F)c(OC)nc4s3)cc(C)cc2n1 [Example 180, 6-fluoro-5-methoxy-2-(2-(methoxymethyl)-7-methylquinoxalin-5-yl)thiazolo[5,4-b] pyridine] | 2.7 nM
COCc1cnc2c(-c3nc4c(C)cc(OC)nc4s3)cc(C)cc2n1 [Example 181, 5-methoxy-2-(2-(methoxymethyl)-7-methylquinoxalin-5-yl)-7-methylthiazolo[5,4-b] pyridine] | 1.2 nM
COc1cnc2c(-c3nc4cc(F)c(OC)nc4s3)cc(C)cc2n1 [Example 182, 6-fluoro-5-methoxy-2-(2-methoxy-7-methylquinoxalin-5-yl)thiazolo[5,4-b]pyridine] | 22 nM
